Laboratory results reported in patent publication US20250152605A1, “METHOD AND DRUG FOR TREATING NEURONAL CEROID LIPOFUSCINOSIS” (priority 2021, published 2025).

Key:
[1] = system: CLN3^Δex7/8 human neural stem cells; experiment: qRT-PCR of autophagy-related and lysosomal genes in human neural stem cells; format: cell-based; details: 6 hours
Procedure: The cells in the cell-culture dish were collected, extracted using AxyPrep Total RNA Mini Prep Kit or Qiagen AxyPrep Total RNA Mini Prep Kit, and the extracted RNA concentration is measured using Nanodrop; the extracted mRNA was reverse transcribed into cDNA by Transgen's EasyScript® One-Step gDNA Removal and cDNA Synthesis SuperMix and the primers used for reverse transcription were Oligo dT primers; the completion of reverse transcription followed by qRT-PCR reaction through PerfectStart™ Green qPCR SuperMix to detect the expression of the target gene; the qRT-PCR reaction was performed on the Bio-Rad CFX96 Real-Time PCR system; see Table 2 and Table 3 for the 20 μL qRT-PCR reaction system and reaction procedures; data analysis was performed in Prism 7 software using the 2^−ΔΔCt process with GAPDH as internal reference for relative quantification of the expression of the target gene.
The effect of Compound G on the transcription level of the autophagy-related genes and the lysosomal genes was further detected in the induced CLN3^Δex7/8 human neural stem cells and neurons.

[2] = system: CLN3^Δex7/8 neural stem cells; experiment: Immunofluorescence staining of neural stem cell lineage markers; format: cell-based, human; details: 48 hours of treatment
Procedure: Fixation: the cell medium was aspirated and the cells were washed once with dPBS, then 4% paraformaldehyde solution was added to fix the cells, which were then incubated at room temperature for 20 min and washed 3 times with dPBS for 5 min each; blocking and permeabilization: blocking solution (5% BSA and 0.3% Trinton-X100 dissolved in dPBS) was added, incubation at room temperature for 1 hour followed by washing with dPBS 3 times for 5 minutes each; primary antibody incubation: the antibody was diluted with dPBS containing 5% BSA according to the specification, incubated overnight at 4° C. or 2 hours at room temperature, and washed 3 times with dPBS for 5 minutes each; secondary antibody incubation: the secondary antibody of the corresponding species was diluted with dPBS containing 5% BSA at a ratio of 1:1000, incubated at room temperature for 1 hour, and then washed with dPBS 3 times for 5 minutes each; nuclear staining: DAPI was diluted to 100 ng/ml with dPBS, incubated at room temperature for 5 minutes, and washed 3 times with dPBS for 5 minutes each; imaging: imaging was performed using Olympus IX83 Inverted Motorized Microscope or Opera Phenix™ High Content Screening System.
After 48 hours of treatment of CLN3^Δex7/8 neural stem cells with Compound G, immunofluorescence staining was performed for the neural stem cell lineage markers SOX1, PAX6 and NESTIN.

For `C/C=C1\C(=O)C[C@H]2[C@@H]3CCC4=CC(=O)CC[C@]4(C)[C@H]3CC[C@]12C` [Compound G, (Z)-guggulsterone], the “transcription level of the autophagy-related genes or the lysosomal genes” value [1] was “did not significantly increase” and the “neural stem cell lineage markers SOX1, PAX6 and NESTIN (cell fate)” value [2] was “maintained the characteristics of SOX1, PAX6 and NESTIN positive”.
